Results on four compounds are retold here after PMC5065625, “Structure-mechanism-based engineering of chemical regulators targeting distinct pathological factors in Alzheimer's disease” (Nature Communications, 2016).

The test system of one data set is Cu(II)–Aβ40/Aβ42. As to the kind of experiment: Aβ aggregation inhibition/disaggregation experiments (gel/western blot, TEM), Cu(II). Particulars: Aβ 25 μM, compound 50 μM, 37 °C, 24 h; gel/western blot and TEM. In kind it is biochemical. How it is done: The ability of 1–4 to control the aggregation of both metal-free Aβ and metal-Aβ in inhibition (Fig. 2) and disaggregation experiments (Supplementary Fig. 1) was evaluated using the two major Aβ isoforms (Aβ40/Aβ42)[1][2][3][6][16] found in the AD-affected brain. Molecular weight (MW) distributions and morphologies of the resulting Aβ species were determined by gel electrophoresis followed by western blotting (gel/western blot) and transmission electron microscopy (TEM). Generally, under the experimental conditions employed herein, compound-free Aβ samples with and without metal ions assemble into a distribution of large aggregates that are too big to penetrate into the gel matrix, which yields very little smearing in the gel/western blots, but they can be visualized by TEM. The administration of compounds, able to interact with Aβ, inhibit the formation of high MW aggregates, and/or disassemble preformed aggregates, typically generates smaller-sized Aβ species that can enter into the gel and produce a substantial amount of streaking compared with the samples containing Aβ only.
Before experiments, Aβ40 or Aβ42 was dissolved in ammonium hydroxide (NH4OH; 1% v/v, aq). The resulting solution was aliquoted, lyophilized overnight and stored at −80 °C. A stock solution of Aβ was then prepared by dissolving lyophilized peptide in 1% NH4OH (10 μl) and diluting with ddH2O. The concentration of the solution was determined by measuring the absorbance of the solution at 280 nm (ɛ=1,450 M^–1 cm^–1 for Aβ40; ɛ=1,490 M^–1 cm^–1 for Aβ42). The peptide stock solution was diluted to a final concentration of 25 μM in Chelex-treated buffered solution containing HEPES ([…]; pH 6.6 for Cu(II) samples; pH 7.4 for metal-free and Zn(II) samples) and NaCl ([…]). For the inhibition studies, compounds (final concentration 50 μM, 1% v/v dimethyl sulfoxide (DMSO)) were added to the sample of Aβ (25 μM) in the absence and presence of a metal chloride salt (CuCl2 or ZnCl2; 25, 50, 100 or 125 μM) followed by incubation at 37 °C with constant agitation for 24 h. For the disaggregation studies, Aβ with and without a metal chloride salt was incubated for 24 h at 37 °C with constant agitation to generate preformed Aβ aggregates. The resulting samples were then treated with compounds (50 μM) and incubated with constant agitation for additional 24 h.
The Aβ samples from in vivo or in vitro experiments were analysed by gel electrophoresis followed by western blotting using an anti-Aβ antibody (6E10)[24][25][27][28][29]. Samples (10 μl) were separated on a 10–20% Tris-tricine gel (Invitrogen, Grand Island, NY, USA). […]
In general terms: Immunoblotting shows a protein as a band on a membrane.

The test system of data set [1] is human neuroblastoma SK-N-BE(2)-M17 (M17) cells. As to the kind of experiment: Cell viability (MTT assay), compounds with and without metal ions. To be noted: with and without Cu(II) and Zn(II), up to 20 μM. In kind it is cell-based. How it is done:
(§1) The M17 cell line was purchased from the American Type Culture Collection (ATCC, Manassas, VA, USA). The cell line was maintained in media containing 50% minimum essential medium and 50% F12 (GIBCO, Grand Island, NY, USA), supplemented with 10% fetal bovine serum (Sigma), 100 U ml^−1 penicillin, and […] streptomycin (GIBCO). The cells were grown and maintained at 37 °C in a humidified atmosphere with 5% CO2. […] Cell viability upon treatment of compounds was determined using the MTT assay (Sigma). M17 cells were seeded in a 96-well plate (15,000 cells in 100 μl per well). The cells were treated with Aβ (20 μM) with or without CuCl2 or ZnCl2 (20 μM), followed by the addition of compounds (20 μM, 1% v/v final DMSO concentration), and incubated for 24 h. After incubation, 25 μl MTT (5 mg ml^−1 in phosphate buffered saline (PBS, pH 7.4, GIBCO) was added to each well and the plate was incubated for 4 h at 37 °C. Formazan produced by the cells was solubilized using an acidic solution of N,N-dimethylformamide (DMF, 50%, v/v aq) and SDS (20%, w/v) overnight at room temperature in the dark. The absorbance was measured at 600 nm using a microplate reader. Cell viability was calculated relative to cells containing an equivalent amount of DMSO.

Data set [2] has as its system Aβ40/Aβ42 toxicity in M17 cells. The data set can be described thus: Cell viability (MTT assay), compounds with Aβ and metal–Aβ. In kind it is cell-based, human. To be noted: compound 20 μM, Aβ40/Aβ42 20 μM, CuCl2 or ZnCl2 20 μM, 24 h. How it is done: as §1
On the technique in general: Formazan colour is commonly taken as a measure of viable cells.

A further data set can be described thus: Solubility. In kind it is physicochemical.
The nature of data set [3]: UV–vis variable-pH titration (pKa). In kind it is physicochemical. To be noted: aqueous solution (10 mM NaOH, 100 mM NaCl) titrated with HCl, 100 μM. How it is done:
The pKa value for 2 was determined by UV–vis variable-pH titrations as previously reported. To establish the pKa value, a solution (10 mM NaOH, pH 12, 100 mM NaCl) of 2 (100 μM) was titrated with small amounts of HCl. At least 30 spectra were recorded in the range of pH 2–10. Similarly, a solution containing CuCl2 and 2 (50 μM) in a metal to ligand ratio of 1:2 was titrated with small additions of HCl and at least 30 spectra were recorded over the range pH 2–7. The acidity and stability constants were calculated by using the HypSpec program (Protonic Software, UK)[56]. Speciation diagrams were modelled in the HySS2009 program (Protonic Software)[57].

Structures are written as SMILES.

Turning to `CN(C)c1ccc(NCc2ccc3ccccc3n2)cc1` [compound 3, N^1,N^1-dimethyl-N^4-(quinolin-2-ylmethyl)benzene-1,4-diamine], the “Modulation of Cu(II)-induced Aβ aggregation” value (“Modulation” for short) in the data set on Cu(II)–Aβ40/Aβ42 is “modulates Aβ aggregation involved by both Cu(II) and Zn(II)”.

Consider `Nc1ccc(NCc2ccccn2)cc1` [compound 1, N^1-(pyridin-2-ylmethyl)benzene-1,4-diamine], for which, in the data set on Cu(II)–Aβ40/Aβ42, the “Modulation” value was “redirect Cu(II)-promoted Aβ40 and Aβ42 aggregation”. Besides, the “Toxicity in M17 cells” value in data set [1] was “nontoxic”. In addition, the “Toxicity induced by metal–Aβ” value in data set [2] is “diminished”.

`CN(C)c1ccc(NCc2ccc[nH]2)cc1` [compound 4, N^1-((1H-pyrrol-2-yl)methyl)-N^4,N^4-dimethylbenzene-1,4-diamine]: the “Modulation” value in the data set with Cu(II)–Aβ40/Aβ42 was “redirect both Cu(II)- and Zn(II)-induced Aβ aggregation”. Further, the “Solubility in the 2-deoxyribose assay buffer” value in the data set “Solubility” (phosphate buffer pH 7.2) was “poor solubility under the assay conditions”.

Broadly, the pKa is the negative logarithm of the acid dissociation constant. Low values mean a group that gives up its proton readily, high ones a group that holds its proton tightly. As to `COc1cc(NCc2ccccn2)cc(OC)c1` [compound 2, 3,5-dimethoxy-N-(pyridin-2-ylmethyl)aniline], the “Modulation” value in the data set on Cu(II)–Aβ40/Aβ42 is listed as “modulating activity at higher Cu(II) concentrations”. Further, the “Toxicity in M17 cells” value in data set [1] is recorded as “nontoxic”. Besides, in data set [2], the “Toxicity induced by metal–Aβ” value is listed as “diminished”. Also, the “Water solubility relative to 1” value in the data set “Solubility” is reported as “much lower degrees of water solubility”. Besides, the pKa in data set [3] turned out to be 5.
